# Results: patent publication US6440445B1, “Methods and compounds for treatment of abnormal uterine bleeding” (Brigham & Women's Hospital, priority 1996, dated 2002)
# Assays:
# [1] = test system: cultured human leiomyoma smooth muscle cells; assay: DNA synthesis (tritiated thymidine incorporation) in cultured leiomyoma smooth muscle cells; assay type: cell-based; conditions: for basal and serum-stimulated DNA synthesis (tritiated thymidine incorporation): interferon 10, 100, 1000 U/ml, 24 hr, serum-free 0.1% BSA or 10% fetal bovine serum
# Method: (§1) Myometrial and leiomyoma cells from the same patients were used at first passage for proliferation assays. 10,000 cells were plated per well in 96-well plates in medium+10 % serum. Cells were cultured for three days and then placed in serum-free medium for 48 hr to attain quiescence. Interferon-α was tested at the following doses in 10% serum-containing medium; 0, 10, 100 and 1000 U/ml for a period of 24 hr. Tritiated thymidine (luCi/ml) was added to the culture wells for the final 4-6 hr of incubation, the medium removed, cells harvested and counted for thymidine incorporation.
# (§2) Effects on basal DNA synthesis were tested using cells cultured in serum-free medium containing only 0.1% BSA while effects on serum-stimulated cells were assessed using cells cultured in medium with 10% fetal bovine serum.
# (§3) FIGS. 6c and 6d show the effects of interferon-α on bFGF induced increases in DNA synthesis by uterine myometrial and leiomyoma cells, respectively. Cells were treated with either medium+10% serum of various concentrations of bFGF (0.5 ng/ml, 1.0 ng/ml, 5.0 ng/m. and 10 ng/ml) to compare mitogenic effects. Cells cultured in serum were also treated with interferon-α at 10, 100 and 1000 U/ml, while cells cultured in the various concentrations of bFGF were treated with 100 U/ml of interferon α.
# [2] = test system: cultured human myometrial smooth muscle cells; assay: DNA synthesis (tritiated thymidine incorporation) in cultured myometrial smooth muscle cells; assay type: cell-based; conditions: for basal and serum-stimulated DNA synthesis (tritiated thymidine incorporation): interferon 10, 100, 1000 U/ml, 24 hr, serum-free 0.1% BSA or 10% fetal bovine serum
# Method: as §1, §2, §3
# [3] = test system: endometrial stromal cells; assay: DNA synthesis in endometrial stromal cells; assay type: cell-based
# Text: Interferons blocked both bFGF and serum-stimulated DNA synthesis in these cells. […] The results also show the effects of increasing concentrations of interferon-alpha on serum stimulated DNA synthesis.
# The results also show the effects of increasing concentrations of interferon-alpha (10, 100 and 1000 U/ml) on serum (2%) stimulated DNA synthesis.
# [4] = test system: FGF / specific cell surface receptors; conditions: cited from earlier work
# smooth muscle cell = conditions: also certain tumor cells; cited from earlier work
# leiomyoma cells [5] = assay: Collagen type I and III messenger RNA expression by RNA blotting, leiomyoma cells; assay type: cell-based
# human fibroblasts = conditions: in response to bFGF, TGFB and PDGF; cited from earlier work
# leiomyoma cells [6] = assay: Pirfenidone: cell proliferation (tritiated thymidine incorporation, cell number), leiomyoma cells; assay type: cell-based; conditions: p<0.01
# Text: (§4) We have also discovered that pirfenidone is a response-blocking compound. Pirfenidone is an antifibrotic agent which is being investigated for use in patients with pulmonary fibrosis. […] Possible cytotoxic effects were examined using lactate dehydrogenase assays and trypan blue exclusion.
# myometrial cells [7] = assay: Cytotoxicity (lactate dehydrogenase assay, trypan blue exclusion), myometrial cells; assay type: cell-based
# Text: as §4
# (§5) Additionally, the effect of pirfenidone on cell proliferation and the percentage of dead cells was examined, and the results from the two experiments are shown in FIG. 12.
# leiomyoma cells [8] = assay: Cytotoxicity (lactate dehydrogenase assay, trypan blue exclusion), leiomyoma cells; assay type: cell-based
# Text: as §4, §5
# myometrial cells [9] = assay: Collagen type I and III messenger RNA expression by RNA blotting, myometrial cells; assay type: cell-based
# myometrial cells [10] = assay: Pirfenidone: cell proliferation (tritiated thymidine incorporation, cell number), myometrial cells; assay type: cell-based; conditions: p<0.01
# Text: as §4
# [11] = test system: vascular smooth muscle cells, T cells, and fibroblasts; conditions: wide variety of cells; cited from earlier work
# uterine stromal cells = assay: Proliferation of uterine stromal cells (cell counts); assay type: cell-based; conditions: only in the presence of progesterone (10 ng/ml bFGF + 100 nm MPA); 7 days
# Method: Stromal cells were used at the first passage and were plated into 100 mm dishes (200,000/dish) in serum-containing medium. The following day, cells were rinsed and transferred to serum-free medium containing insulin, transferrin and selenium. Cells remained in this medium for 48 hr to induce quiescence and then received fresh serum-free medium with one of the following treatments: ITS (medium containing only insulin, transferin, and selenium), ITS+10% fetal bovine serum, MPA (ITS+100 nm medroxy progesterone acetate), E2 (ITS+10 nm estradiol 17-beta), bFGF (ITS+10 ng/ml bFGF), bFGF/E2/MPA (ITS+100 nm MPA+10 nm estradiol+10 ng/ml bFGF), bFGF+2% fetal bovine serum (ITS+10 ng/ml bFGF+2% fetal bovine serum), bFGF+MPA (ITS+10 ng/ml bFGF+100 nm MPA) and bFGF+E2 (TS+10 ng/ml bFGF+10 nm estradiol). Cells were treated for a total of 7 days with cell counts performed on days 2, 4 and 7.
# [12] = bFGF 0.5-10 ng/ml with 100 U/ml interferon
molecule,measurement,setting,value
interferon-α,bFGF induced DNA synthesis,[1]; [12],inhibitory effect
same,basal and serum-stimulated DNA synthesis (tritiated thymidine incorporation),[1],dose-dependent inhibition
same,basal and serum-stimulated DNA synthesis (tritiated thymidine incorporation),[1]; listed as interferon alpha,tritiated thymidine incorporation decreases
same,bFGF induced DNA synthesis,[2]; [12],abolished the stimulating effect
same,basal and serum-stimulated DNA synthesis (tritiated thymidine incorporation),[2],dose-dependent inhibition
same,basal and serum-stimulated DNA synthesis (tritiated thymidine incorporation),[2]; listed as interferon alpha,tritiated thymidine incorporation decreases
same,serum-stimulated DNA synthesis,"[3]; 2% serum, interferon 10, 100, 1000 U/ml",blocked
same,bFGF stimulated DNA synthesis,"[3]; bFGF 0.1-5 ng/ml, 100 U/ml interferon",blocked
heparin,binding of FGF to specific cell surface receptors,[4],inhibit FGF binding
same,smooth muscle cell proliferation,smooth muscle cell,very good inhibitors
"Cc1ccc(=O)n(-c2ccccc2)c1 [pirfenidone, 5-methyl-1-phenyl-2-(1H)-pyridone]",levels of RNA for collagen type I,leiomyoma cells [5],reduced
same,levels of RNA for collagen type III,leiomyoma cells [5],reduced
same,fibroblast proliferation in vitro,human fibroblasts,inhibit fibroblast proliferation
same,cell proliferation,leiomyoma cells [6],dose dependent inhibition
same,lactate dehydrogenase (LDH) levels,myometrial cells [7],No significant effects
same,cytotoxic effect on the cells,myometrial cells [7]; at the doses tested,no cytotoxic effect
same,percentage of dead cells,"myometrial cells [7]; only at 1.0 mg/ml, p<0.05",significant increase
same,lactate dehydrogenase (LDH) levels,leiomyoma cells [8],No significant effects
same,cytotoxic effect on the cells,leiomyoma cells [8]; at the doses tested,no cytotoxic effect
same,percentage of dead cells,"leiomyoma cells [8]; only at 1.0 mg/ml, p<0.05",significant increase
same,levels of RNA for collagen type I,myometrial cells [9],reduced
same,levels of RNA for collagen type III,myometrial cells [9],reduced
same,cell proliferation,myometrial cells [10],dose dependent inhibition
Cc1ccc(C(=O)Nc2ccc(S(=O)(=O)O)c3cc(S(=O)(=O)O)cc(S(=O)(=O)O)c23)cc1NC(=O)c1cccc(NC(=O)Nc2cccc(C(=O)Nc3cc(C(=O)Nc4ccc(S(=O)(=O)O)c5cc(S(=O)(=O)O)cc(S(=O)(=O)O)c45)ccc3C)c2)c1 [suramin],FGF induced proliferation,[11],very potent inhibitor
same,binding of FGF to specific cell surface receptors,[4],interfere with the ability of FGFs to bind
"bFGF: basic fibroblast growth factor, angiogenic growth factor",effect of growth factor on DNA synthesis,[2]; bFGF 0.5-10 ng/ml,increase in DNA synthesis
same,proliferation of uterine stromal cells (cell number),uterine stromal cells,stimulates the proliferation
